Publication PMC6550366, “High-Throughput Recovery and Characterization of Metagenome-Derived Glycoside Hydrolase-Containing Clones as a Resource for Biocatalyst Development” (mSystems, 2019)

Tested on: T1, C11-GH1
T1 construct: gene C11_GH1; Full ORF in pET28 (NdeI/XhoI), E. coli BL21(DE3), Ni-NTA; text says C-terminal His tag but reverse primer carries a stop codon; Primer-derived: N-term (M)VAFSDKFL (native GTG start), C-term SRNGKNL, nucleophile region LPLIITENGMADND
Assay: fluorogenic hydrolysis, MU release
Format: biochemical
Details: 20 mM HEPES, 300 mM NaCl, pH 7.0, 37°C; read-out: Mean Km (mM) ± SD
Description: fluorogenic hydrolysis, MU release on C11-GH1

Km [mM]	SMILES
0.1 ± 0.02	Cc1cc(=O)oc2cc(O[C@@H]3O[C@H](CN=[N+]=[N-])[C@H](O)[C@H](O)[C@H]3O)ccc12 [6-N3-Gal MU, 4-methylumbelliferyl 6-azido-6-deoxy-β-D-galactoside]
0.05 ± 0.01	Cc1cc(=O)oc2cc(O[C@@H]3O[C@H](CN=[N+]=[N-])[C@@H](O)[C@H](O)[C@H]3O)ccc12 [6-N3-Glc MU]
0.05 ± 0.02	Cc1cc(=O)oc2cc(O[C@@H]3O[C@H](CO)[C@H](O)[C@H](O)[C@H]3O)ccc12 [Gal MU]
0.2 ± 0.03	Cc1cc(=O)oc2cc(O[C@@H]3O[C@H](CO)[C@@H](O)[C@H](O)[C@H]3O)ccc12 [Glc MU]
